The results in this text go back to ChEMBL document CHEMBL1201862, “PubChem BioAssay data set” (2004).

Structures are written as SMILES.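 Five concentrations, 48 hours, 96-well plates. GI50: concentration for 50% inhibition of growth.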 The source made the active and inactive calls. Rule as the data show it: active = GI50 up to about 1.1 µM and inactive = higher. Where only a bound is given, the exact number is not on record here.

Common to all, as to test: inhibition of tumour cell growth, NCI panel, 48 h
The subject of assay [1] is CAKI-1.
The test system of assay [2] is SF-295.
Assay [3] deals with IGROV-1.
Assay [4] deals with 786-0.
Assay [5] relates to MOLT-4.
The test system of assay [6] is COLO 205.
Assay [7] relates to SNB-19.
Assay [8] deals with NCI-H23.
The test system of assay [9] is CCRF-CEM.
The test system of assay [10] is SK-MEL-5.
Assay [11] deals with NCI-H226.
Assay [12] deals with OVCAR-4.
Assay [13] concerns KM-20L2.
For assay [14], the system named is NCI-H522.
In assay [15] the test system is LOX IMVI.
For assay [16], the system named is KM12.
Assay [17] has as its system UO-31.
In assay [18] the test system is HCC 2998.
Assay [19] concerns M14.

Consider `C=CCCCC(C#N)(c1ccccc1)N1CCCC1` (stereo not drawn), for which the GI50 in assay [1], in assay [2], in [3], in assay [4], in [5] and in [6] was > 100 µM (inactive) throughout. Moreover, the GI50 in assay [7], in assay [8], in assay [9], in assay [10], in assay [11] and in assay [12] was > 100 µM (inactive) each time. The GI50 in assay [13], in [14], in assay [15], in assay [16], in [17] and in assay [18] was > 100 µM (inactive) in each case. Besides, the GI50 in assay [19] is > 100 µM (inactive).
As for `Cc1ccc(NC(=O)C2C3CCC(O3)C2C(=O)O)cc1` (stereo not drawn), the GI50 in assay [1] was > 100 µM (inactive); in [2], > 95.9 µM (inactive); in assay [3] it was > 100 µM (inactive); in assay [4] it was > 40.6 µM (inactive); in [5], > 87.9 µM (inactive); in [6], 35.7 µM (inactive). The GI50 is > 100 µM (inactive) in [7]; > 100 µM (inactive) in assay [8]; > 44.8 µM (inactive) in [9]; > 75 µM (inactive) in assay [10]; 56.5 µM (inactive) in assay [11]; > 100 µM (inactive) in assay [12]. Further, the GI50 in assay [13] was > 26.6 µM (inactive); in assay [14], 43.6 µM (inactive); in assay [15], > 38.7 µM (inactive); in [16], > 100 µM (inactive); in assay [17], > 100 µM (inactive); in [18], 99.1 µM (inactive). Further, in [19], the GI50 was > 49.4 µM (inactive).
For the compound `NNC(=O)N/N=C1\CNC(=O)C(=O)C1c1nc2ccccc2s1` (stereo not drawn), the GI50 in assay [1], in assay [2], in assay [3], in assay [4], in assay [6] and in assay [7] was > 100 µM (inactive) throughout. The GI50 in [8], in assay [9], in assay [10], in assay [11], in assay [12] and in assay [13] was > 100 µM (inactive) in each case. Also, the GI50 in [14], in [15], in assay [16], in assay [17], in assay [18] and in assay [19] was > 100 µM (inactive) throughout.
`Cc1cc(O)nc(CNC(=O)c2cccc(C(=O)NCc3cc(O)nc(C)n3)c2)n1`: the GI50 in assay [2], in assay [3], in assay [4], in assay [5], in assay [6] and in assay [7] was > 100 µM (inactive) throughout. The GI50 in assay [8], in assay [9], in assay [10], in assay [11], in assay [12] and in assay [13] was > 100 µM (inactive) throughout. Also, the GI50 in assay [14], in [15], in [16], in assay [17], in assay [18] and in [19] was > 100 µM (inactive) each time.
For the compound `Cc1cccc(C)c1NC(=O)CCCC(=O)C(C#N)c1ccc(Cl)cc1` (stereo not drawn), the GI50 in assay [1], in assay [2], in assay [3], in assay [4], in assay [5] and in assay [6] was > 100 µM (inactive) each time. For the same compound, the GI50 in assay [7], in [8], in assay [9], in assay [10], in assay [11] and in assay [12] was > 100 µM (inactive) throughout. The GI50 in assay [13], in assay [14], in assay [15], in assay [16], in assay [17] and in assay [18] was > 100 µM (inactive) in each case. The GI50 in assay [19] was > 100 µM (inactive).
For `Cc1ccc(S(=O)(=O)OC(C=O)C(O)C(O)COC(c2ccccc2)(c2ccccc2)c2ccccc2)cc1` (stereo not drawn), the GI50 in assay [1] was 19.8 µM (inactive); in [2], 12.2 µM (inactive); in assay [3], 15.1 µM (inactive); in [4] it was 14.1 µM (inactive); in assay [5] it was 6.08 µM (inactive); in assay [7] it was 14.8 µM (inactive). Further, the GI50 in assay [10] was 15.4 µM (inactive); in [11] it was 14.9 µM (inactive); in [12], 18.2 µM (inactive); in assay [13] it was 14.1 µM (inactive); in [14], 13.1 µM (inactive); in assay [15] it was 19.1 µM (inactive). Moreover, the GI50 in [16] was 11.9 µM (inactive); in [17] it was 16.8 µM (inactive); in assay [18], 12 µM (inactive); in [19] it was 16.1 µM (inactive).
In the case of `N#Cc1ccc(Nc2cnc3ccc(N)cc3n2)cc1`, the GI50 in assay [1], in assay [2], in assay [4], in assay [5], in assay [6] and in assay [7] was > 100 µM (inactive) throughout. The GI50 in assay [8], in [9], in assay [10], in assay [11], in assay [12] and in assay [13] was > 100 µM (inactive) throughout. The GI50 in assay [14], in assay [15], in assay [16], in [17], in [18] and in assay [19] was > 100 µM (inactive) in each case.
Regarding `O=C(Nc1cccc(Cl)c1)c1cc2cc(/N=N/c3ccc(Br)cc3)ccc2oc1=O`, the GI50 in [1] is 23.2 µM (inactive); in [2], 42 µM (inactive); in assay [3], 51.5 µM (inactive); in assay [4] it was 25.5 µM (inactive); in assay [5] it was 14.9 µM (inactive); in [6], 41.4 µM (inactive). The GI50 in assay [7] was 25.1 µM (inactive); in [8] it was 22.6 µM (inactive); in assay [10] it was 36.8 µM (inactive); in assay [12], 27.7 µM (inactive); in assay [13] it was 45.1 µM (inactive); in [14], 49.4 µM (inactive). The GI50 is 14.4 µM (inactive) in assay [15]; 19.2 µM (inactive) in assay [16]; 14 µM (inactive) in assay [17]; 25.8 µM (inactive) in [18]; 22.3 µM (inactive) in [19].
For the compound `C=C1CC(CCCl)(c2ccccc2)OC1=O` (stereo not drawn), the GI50 was > 100 µM (inactive) in [2]; > 100 µM (inactive) in assay [3]; 17.4 µM (inactive) in assay [4]; 21.1 µM (inactive) in assay [5]; 29 µM (inactive) in assay [6]; > 78.7 µM (inactive) in [7]. For the same compound, the GI50 was > 100 µM (inactive) in [8]; 20 µM (inactive) in [9]; > 100 µM (inactive) in [10]; > 100 µM (inactive) in [11]; > 100 µM (inactive) in assay [12]; 61.8 µM (inactive) in [13]. Moreover, the GI50 in assay [14] was 18.5 µM (inactive); in [15], 30.5 µM (inactive); in assay [16], 44.7 µM (inactive); in assay [17], 58.3 µM (inactive); in assay [18], 35.7 µM (inactive); in [19], 19.5 µM (inactive).
In the case of `CCOC(=O)/C(=C/c1ccccc1Br)P(=O)(OCC)OCC`, the GI50 in [1] was 2.09 µM (inactive); in [2], 3.96 µM (inactive); in assay [3] it was 3.28 µM (inactive); in assay [4] it was 1.34 µM (inactive); in assay [5], 2.28 µM (inactive); in [7], 2.49 µM (inactive). The GI50 in [8] is 1.73 µM (inactive); in assay [9], 0.738 µM (active); in assay [10], 1.63 µM (inactive); in assay [11], 3.07 µM (inactive); in assay [12] it was 1.58 µM (inactive); in assay [13] it was 2.25 µM (inactive). Further, the GI50 was 0.927 µM (active) in assay [14]; 1.39 µM (inactive) in [15]; 1.87 µM (inactive) in assay [16]; 1.78 µM (inactive) in assay [18]; 1.54 µM (inactive) in assay [19].
As to `CC(=O)O[C@@H]1CC[C@@]2(C)C(=O)C34C[C@@]5(C)C([C@@H](C)CCCC(C)C)CCC5(C)[C@](O)(O3)C(=O)[C@H]4C2C1(C)C` (stereo partly drawn), the GI50 in assay [1] is 14.7 µM (inactive); in assay [2], 16.3 µM (inactive); in assay [3], 15.4 µM (inactive); in [4], 12.9 µM (inactive); in assay [5], 7.74 µM (inactive); in assay [6], 14.5 µM (inactive). Further, the GI50 in [7] was 16.6 µM (inactive); in [8] it was 13.4 µM (inactive); in assay [9], 4.3 µM (inactive); in assay [10] it was 15 µM (inactive); in assay [11], 15.7 µM (inactive); in [12] it was 13.2 µM (inactive). The GI50 in assay [13] is 17.4 µM (inactive); in [14] it was 12.3 µM (inactive); in assay [15] it was 15.6 µM (inactive); in assay [16] it was 11.3 µM (inactive); in [17], 13.3 µM (inactive); in assay [18] it was 11.3 µM (inactive). In addition, the GI50 in [19] was 13.1 µM (inactive).
